Laboratory results published in US12577267B2, “Pyrimidine compounds for use as MAP4K1 inhibitors” (GLENMARK SPECIALITY S.A., priority 2021, dated 2026).
Structures can show the parent of a compound that is named as a salt. Where two headings read alike, the source gives them in different places.

Target: MAP4K-1 enzyme (Homo sapiens, UniProt Q92918)
Experiment: FRET one step binding assay (tracer displacement)
Description: This is a one step binding assay based on the binding and displacement of the labeled tracer, where compound addition is followed by addition of the anti-GST tagged europium (Eu) as the donor and Alexa Fluor-labeled tracer as the acceptor.
Test compounds were dissolved in dimethylsulfoxide (DMSO) to prepare 10.0 mM stock solutions and diluted to the desired concentration. The final concentration of DMSO in the reaction was 3% (v/v). The assay mixture was prepared by mixing 2 nM of the Eu-Anti-GST Antibody and 5 nM MAP4K-1 enzyme in the Kinase buffer containing 50 mM HEPES (pH 7.5), 10 mM MgCl2, 1 mM EGTA, 0.01% Brij-35 with or without the desired concentration of the compound. The reaction was incubated on ice for 15 min. […] After shaking for 5 min the reaction was further incubated for 1 hour at room temperature and this was kept at 4° C. and read on ARTEMIS reader as per the kit instructions (Thermo). […] The activity was calculated as percent of control reaction. IC50 values were calculated from dose response curve by nonlinear regression analysis using GraphPad Prism software.

MAP4K-1 enzyme, sequence (Q92918 whole entry): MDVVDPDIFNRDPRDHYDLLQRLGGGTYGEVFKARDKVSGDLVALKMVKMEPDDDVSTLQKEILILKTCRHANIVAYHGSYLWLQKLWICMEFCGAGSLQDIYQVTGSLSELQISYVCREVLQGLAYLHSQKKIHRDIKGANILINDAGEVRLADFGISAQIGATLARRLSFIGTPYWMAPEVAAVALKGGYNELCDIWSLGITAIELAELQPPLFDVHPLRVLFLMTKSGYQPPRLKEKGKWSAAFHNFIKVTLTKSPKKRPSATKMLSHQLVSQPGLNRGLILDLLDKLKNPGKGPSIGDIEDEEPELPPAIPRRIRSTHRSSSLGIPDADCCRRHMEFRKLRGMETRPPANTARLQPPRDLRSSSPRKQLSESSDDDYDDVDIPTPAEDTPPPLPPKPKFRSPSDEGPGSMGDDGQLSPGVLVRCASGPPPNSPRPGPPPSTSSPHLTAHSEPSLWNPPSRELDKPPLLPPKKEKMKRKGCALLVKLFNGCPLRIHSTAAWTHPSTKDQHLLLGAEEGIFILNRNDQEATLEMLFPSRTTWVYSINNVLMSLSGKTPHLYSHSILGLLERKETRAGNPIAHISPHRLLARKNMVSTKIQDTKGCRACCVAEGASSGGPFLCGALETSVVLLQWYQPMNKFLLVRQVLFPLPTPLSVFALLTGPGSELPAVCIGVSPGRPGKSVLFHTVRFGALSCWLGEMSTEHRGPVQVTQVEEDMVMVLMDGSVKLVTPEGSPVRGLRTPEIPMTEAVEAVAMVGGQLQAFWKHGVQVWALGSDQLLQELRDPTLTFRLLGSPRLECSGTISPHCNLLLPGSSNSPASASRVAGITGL

Row | IC50 (read-out: IC50) [nM] | Compound | inhibition at 1 µM (1 μM compound) [%] | inhibition at 10 µM (10 μM compound) [%] | IC50 (IC50 (nM)) [nM] | % Inhibition at 1 μM (1 μM compound, 1 µM) [%] | % Inhibition at 10 μM (10 μM compound, 10 µM) [%]
1 |  | COc1cc2c(cc1Nc1ncc(Cl)c(Nc3ccc(N(C)S(=O)(=O)F)cc3P(C)(C)=O)n1)CN(C)CC2 [Example 43, 4-((5-Chloro-2-((6-methoxy-2-methyl-1,2,3,4-tetrahydroisoquinolin-7-yl)amino)pyrimidin-4-yl)amino)-3-(dimethylphosphoryl)phenyl)(methyl)sulfamoylfluoride dihydrochloride] | 80 | 80.5 | < 50 |  | 
2 |  | COc1cc2c(cc1Nc1ncc(Cl)c(Nc3ncc(OS(=O)(=O)F)cc3P(C)(C)=O)n1)C(C)N(C)CC2 (single isomer, unassigned; isomer 1) [Example 23, 6-((5-Chloro-2-((6-methoxy-1,2-dimethyl-1,2,3,4-tetrahydroisoquinolin-7-yl)amino)pyrimidin-4-yl)amino)-5-(dimethylphosphory)pyridin-3-yl sulfofluoridate dihyrochloride (Isomer 1)] | 86.1 | 89.6 | 50 to 100 |  | 
3 | < 50 | COc1cc2c(cc1Nc1ncc(Cl)c(Nc3ccc(NC(=O)CCl)cc3P(C)(C)=O)n1)CN(C)CC2 [Example 56, 2-Chloro-N-(4-((5-chloro-2-((6-methoxy-2-methyl-1,2,3,4-tetrahydroisoquinolin-7-yl)amino)pyrimidin-4-yl)amino)-3-(dimethylphosphoryl)phenyl)acetamide hydrochloride] | 88.7 | 88.2 |  |  | 
4 | < 50 | COCCOc1ccc(Nc2nc(Nc3cc4c(cc3OC)CCN(C)C4)ncc2Cl)c(P(C)(C)=O)c1 [Example 50, (2-((5-Chloro-2-((6-methoxy-2-methyl-1,2,3,4-tetrahydroisoquinolin-7-yl)amino)pyrimidin-4-yl)amino)-5-(2-methoxyethoxy)phenyl)dimethyl phosphine oxide] | 92.7 | 94.8 |  |  | 
5 |  | [2H]C([2H])([2H])Oc1cc2c(cc1Nc1ncc(Cl)c(Nc3ccc(OS(=O)(=O)F)cc3P(C)(C)=O)n1)CN(C([2H])([2H])[2H])CC2 [Example 6, 4-((5-Chloro-2-((6-methoxy-d3)-2-(methyl-d3)-1,2,3,4-tetrahydroisoquinolin-7-yl)amino)pyrimidin-4-yl)amino)-3-(dimethylphosphoryl)phenyl sulfurofluoridate dihydrochloride] | 80 | 82 | < 50 |  | 
6 | 50 to 100 | COc1cc2c(cc1Nc1ncc(Cl)c(Nc3ccc(N(C)C(=O)C(F)F)cc3P(C)(C)=O)n1)CN(C)CC2 [Example 53, N-(4-((5-Chloro-2-((6-methoxy-2-methyl-1,2,3,4-tetrahydroisoquinolin-7-yl)amino)pyrimidin-4-yl)amino)-3-(dimethylphosphoryl)phenyl)-2,2-difluoro-N-methylacetamide] | 82.4 | 90 |  |  | 
7 | < 50 | COc1cc2c(cc1Nc1ncc(Cl)c(Nc3ccc(OC4COC4)cc3P(C)(C)=O)n1)CN(C)CC2 [Example 51, (2-((5-Chloro-2-((6-methoxy-2-methyl-1,2,3,4-tetrahydroisoquinolin-7-yl)amino)pyrimidin-4-yl)amino)-5-(oxetan-3-yloxy)phenyl)dimethyl phosphine oxide] | 93.1 | 94.3 |  |  | 
8 | < 50 | COc1cc2c(cc1Nc1ncc(Cl)c(Nc3ccc(O[C@H]4CCOC4)cc3P(C)(C)=O)n1)CN(C)CC2 [Example 48, (S)-(2-((5-Chloro-2-((6-methoxy-2-methyl-1,2,3,4-tetrahydroisoquinolin-7-yl)amino)pyrimidin-4-yl)amino)-5-((tetrahydrofuran-3-yl)oxy)phenyl)dimethylphosphineoxide] | 84.2 | 81.4 |  |  | 
9 |  | COc1cc2c(cc1Nc1ncc(Cl)c(Nc3ccc(OS(=O)(=O)F)cc3P(C)(C)=O)n1)CN(CCF)CC2 [Example 13, 4-((5-Chloro-2-((2-(2-fluoroethyl)-6-methoxy-1,2,3,4-tetrahydroisoquinolin-7-yl)amino)pyrimidin-4-yl)amino)-3-(dimethylphos-phoryl)phenylsulfofluoridate dihydrochloride] | 79.7 | 81 | < 50 |  | 
10 |  | COc1cc2c(cc1Nc1ncc(Cl)c(Nc3ccc(OS(=O)(=O)F)cc3P(C)(C)=O)n1)C(C)(C)N(C)CC2 [Example 11, 4-((5-Chloro-2-((6-methoxy-1,1,2-trimethyl-1,2,3,4-tetrahydroisoquinolin-7-yl)amino)pyrimidin-4-yl)amino)-3-(dimethylphosphoryl)phenyl sulfurofluoridate dihydrochloride] | 75.1 | 87.2 | < 50 |  | 
11 |  | COc1cc2c(cc1Nc1ncc(Cl)c(Nc3ccc(OS(=O)(=O)F)cc3P(C)(C)=O)n1)CN(C1COC1)CC2 [Example 16, 4-((5-Chloro-2-((6-methoxy-2-(oxetan-3-yl)-1,2,3,4-tetrahydroisoquinolin-7-yl)amino)pyrimidin-4-yl)amino)-3-(dimethylphosphoryl)phenyl sulfurofluoridate dihydrochloride] | 87.3 | 86 | < 50 |  | 
12 |  | CN1CCc2cc(OC(F)F)c(Nc3ncc(Cl)c(Nc4ccc(OS(=O)(=O)F)cc4P(C)(C)=O)n3)cc2C1 [Example 10, 4-((5-Chloro-2-((6-(difluoromethoxy)-2-methyl-1,2,3,4-tetrahydroqisoquinolin-7-yl)amino)pyrimidin-4-yl)amino)-3-(dimethylphosphoryl)phenyl sulfurofluoridate dihydrochloride] | 92.3 | 89 | < 50 |  | 
13 |  | COc1cc2c(cc1Nc1ncc(Cl)c(Nc3ccc(OS(=O)(=O)F)cc3P(C)(C)=O)n1)C(=O)N(C)CC2 [Example 17, 4-((5-Chloro-2-((6-methoxy-2-methyl-1-oxo-1,2,3,4-tetrahydroisoquinolin-7-yl)amino)pyrimidin-4-yl)amino)-3-(dimethylphosphoryl)phenyl sulfurofluoridatehydrochloride] | 86.6 | 90.2 | < 50 |  | 
14 |  | COc1cc2c(cc1Nc1ncc(Cl)c(Nc3ccc(OS(=O)(=O)F)cc3P(C)(C)=O)n1)CN(C)C(C)C2 (single isomer, unassigned; isomer 1) [Example 33, 4-((5-Chloro-2-((6-methoxy-2,3-dimethyl-1,2,3,4-tetrahydroisoquinolin-7-yl)amino)pyrimidin-4-yl)amino)-3-(dimethylphosphoryl)phenyl sulfofluoridate dihydrochloride (Isomer 1)] | 92.8 | 87.8 | < 50 |  | 
15 | < 50 | COc1cc2c(cc1Nc1ncc(Cl)c(Nc3ccc(C(=O)N(C)CCF)cc3P(C)(C)=O)n1)CN(C)CC2 [Example 52, 4-((5-Chloro-2-((6-methoxy-2-methyl-1,2,3,4-tetrahydroisoquinolin-7-yl)amino)pyrimidin-4-yl)amino)-3-(dimethylphosphoryl)-N-(2-fluoroethyl)-N-methyl benzamide] | 88.2 | 85.5 |  |  | 
16 |  | COc1cc2c(cc1Nc1ncc(Cl)c(Nc3ncc(OS(=O)(=O)F)cc3P(C)(C)=O)n1)CN(C)CC2 [Example 20, 6-((5-Chloro-2-((6-methoxy-2-methyl-1,2,3,4-tetrahydroisoquinolin-7-yl)amino)pyrimidin-4-yl)amino)-5-(dimethylphosphoryl)pyridin-3-yl sulfofluoridate dihydrochloride] | 80.1 | 75.5 | < 50 |  | 
17 |  | COc1cc2c(cc1Nc1ncc(Cl)c(Nc3c(C)cc(OS(=O)(=O)F)cc3P(C)(C)=O)n1)CN(C)CC2 [Example 15, 4-((5-Chloro-2-((6-methoxy-2-methyl-1,2,3,4-tetrahydroisoquinolin-7-yl)amino)pyrimidin-4-yl)amino)-3-(dimethylphosphoryl)-5-methylphenyl sulfurofluoridate dihydrochloride] | 78.6 | 91.8 | > 500 |  | 
18 |  | COc1cc2c(cc1Nc1ncc(Cl)c(Nc3ncc(OS(=O)(=O)F)cc3P(C)(C)=O)n1)C(C)N(C)CC2 (single isomer, unassigned; isomer 2) [Example 24, 6-((5-Chloro-2-((6-methoxy-1,2-dimethyl-1,2,3,4-tetrahydroisoquinolin-7-yl)amino)pyrimidin-4-yl)amino)-5-(dimethylphosphoryl)pyridin-3-yl sulfofluoridate dihydrochloride (Isomer 2)] |  |  | < 50 | 86.68 | 85.52
19 | 50 to 100 | COc1cc2c(cc1Nc1ncc(Cl)c(N=S(C)(=O)c3ccccc3P(C)(C)=O)n1)CN(C)CC2 (stereo not drawn) [Example 57, (2-(N-(5-Chloro-2-((6-methoxy-2-methyl-1,2,3,4-tetrahydroisoquinolin-7-yl)amino)pyrimidin-4-yl)-S-methylsulfonimidoyl)phenyl)dimethylphosphine oxide] | 83 | 79.3 |  |  | 
20 |  | COc1cc2c(cc1Nc1ncc(Cl)c(Nc3c(F)cc(OS(=O)(=O)F)cc3P(C)(C)=O)n1)CN(C)CC2 [Example 14, 4-((5-Chloro-2-((6-methoxy-2-methyl-1,2,3,4-tetrahydroisoquinolin-7-yl)amino)pyrimidin-4-yl)amino)-3-(dimethylphosphoryl)-5-fluorophenylsulfurofluoridate dihydrochloride] | 89.7 | 93.3 | < 50 |  | 
